Reference: the RepoRT retention time repository

Assay: Agilent ZORBAX 300 SB-C18, 150 × 1 mm, 3.5 µm; A: water + 0.01% heptafluorobutyric acid; B: acetonitrile + 0.01% heptafluorobutyric acid; gradient (min/%B) 0/0 100/90
Conditions: stereoisomer not certain

SMILES	LC retention time [min]
O=C(NN=Cc1ccco1)c1ccccc1	9.65
C#CC(C)(C)N	6.38
O=C(O)C1CCCN(CCc2ccccc2)C1 (stereo not given)	8.36
CC(C)c1ccc(C(=O)CCN(C)C)cc1	9.8
NNC(=S)Nc1ccccc1	8.31
Cc1ccc(-c2ccc(C(=O)O)[nH]2)cc1	12
Cc1ccc2cccc(SC(c3ccccc3)c3ccccc3)c2n1	17.5
OC(Cn1cccc1)c1ccccc1 (stereo not given)	11.8
CC(C)CC1(C)NC(=S)N(c2ccccc2)N1 (stereo not given)	14.1
NCCN1CCCCC1	6.98
CN(C)c1ccc(C=NNc2nc3ccccc3c(=O)n2-c2ccccc2)cc1	14.3
COc1ccc(-n2c(O)c(Cc3ccc(OC)c(OC)c3)c(=O)[nH]c2=O)cc1	10.7
Cc1ccc(C(=O)c2cccc(N)c2)cc1C	13
NC(CC(=O)O)c1ccccc1 (stereo not given)	5.59
NCc1cc2ccccc2o1	8.09
CC(C)(C)C1=CC(=O)CN(C(C)(C)C)C1	8.19
O=C1CC(N2CCN(C(c3ccccc3)c3ccccc3)CC2)C(=O)N1c1cccc2ccccc12 (stereo not given)	12.4
COc1cccc(C(=O)N(c2ccccc2)C2CC(C)N(C(C)=O)c3ccccc32)c1 (stereo not given)	14.3
Cc1ccc(C(=O)NC(C)c2ccc(O)cc2)cc1 (stereo not given)	11.1
COc1nc(N2CCCC2)[nH]c(=O)n1	7.43
O=C(Nc1cccnc1)c1ccccn1	8.14
O=C(O)c1c2ccccc2nc2ccccc12	5.86
CCNC(=S)Nc1ccccc1N	8.14
NC1CCCCC1	7.63
c1cc(CCCc2ccncc2)ccn1	7.37
Nc1cc[n+](Cc2ccccc2)cc1	8.46

SMILES	LC retention time [min]
CCOC(=O)C1(c2ccccc2)CCN(C)CC1	9.81
CC(=O)C1CCC2C3CC(C)C4=CC(=O)CCC4(C)C3C(O)CC12C (stereo not given)	14.8
CN1CCC(NCc2cccnc2)CC1	7.19
Cc1nc(C)c(C)nc1C	7.72
CCN(CC)CC(=O)Nc1c(C)ccc(O)c1C	8.16
CC(=O)c1ccc2c(c1)n(C)c(=O)n2C	9
O=c1c2n[nH]nc2cnn1-c1ccccc1	8.76
CCOC1CCC2CC3C4CCC(O)C5OC1C2C45CCN3C (stereo not given)	8.78
COc1ccc2c(c1)C(C)CC(C)(C)N2 (stereo not given)	9.43
C1CCC(OCCNCCOC2CCCCC2)CC1	12
CN(C)C(=O)c1ccc(N)cc1	6.87
Cn1c(=O)c2ccc(C(=O)Nc3ccc4ccccc4n3)cc2c(=O)n1C	10.4
Cc1ccc(C(=O)NCc2ccco2)cc1	11.7
CN(CCO)C(=O)Nc1ccccc1	7.92
c1ccc(Cn2c3ccccc3n3c(Nc4ccccc4)nnc23)cc1	12.7
CNCCOc1ccccc1	8.08
COc1ccc(C(=O)NCC(=O)NN)cc1OC	7.29
O=c1[nH][nH]c2c1CCCC2	7.38
CCC(=O)c1ccc2c(c1)N(CC(C)N(C)C)c1ccccc1S2 (stereo not given)	11.8
Nc1ccc(C(=O)O)cc1N	5.93
O=C1CCCN1CCc1ccccn1	6.77
c1ccc(-c2ccnc(-c3cc(-c4ccccc4)ccn3)c2)cc1	14.9
COc1ccc(NC(=O)c2ccc(C)cc2)c(OC)c1	14.2
CC(C)CC(=O)Nc1cccc(C(=O)O)c1	10.1
Cn1c(C2CCCCC2)nc2ccccc21	9.55
CC(C(=O)O)n1cccc1 (stereo not given)	8.41

SMILES	LC retention time [min]
CCCC(N)=O	4.71
Cc1ccc2nc3nc(C)cc(C)c3c(N)c2c1	8.99
COc1cc(CNC(=O)Nc2ccccc2)cc(OC)c1OC	11.3
COc1ccc(C2NNc3nn(-c4ccccc4OC)nc32)cc1 (stereo not given)	13.6
CCCCN(C)C	7.03
COc1cccc(C2C3=C(CC(C)(C)CC3=O)OC3=C2C(=O)CC(C)(C)C3)c1OC	16.5
CCC1NC(=O)NC(C)=C1C(C)=O (stereo not given)	7.34
Nc1ccc(N)nc1	5.45
c1ccc(N2CCNCC2)cc1	8
CCCCSCCSC(=N)N	9.27
c1ccc(C2CN3CCSC3=N2)cc1 (stereo not given)	8.73
Nc1cc(N)[nH]c(=S)n1	6.42
NCC1CCCCC1	8.08
O=C1CC(Nc2ccc3ccccc3c2)C(=O)N1c1cccc2ccccc12 (stereo not given)	15.7
CN1CCCCC1	6.61
Cc1nc2ccc(NC(=S)N(C)C)cc2nc1C	8.82
Cc1cccc(CN)c1	7.91
O=C1NC2CCCCC2NC1CC(=O)N1CCN(Cc2ccccc2)CC1 (stereo not given)	7.88
CCN(CCCCOC(=O)c1ccc(OC)c(OC)c1)C(C)Cc1ccc(OC)cc1 (stereo not given)	11.9
Nc1ccc2nc(-c3ccccc3)oc(=O)c2c1	11.2
CN(C)c1ccc(CCN)cc1	7.22
CNC(C)(C)Cc1ccccc1	8.99
CC(=O)NC(NC(C)=O)NC(C)=O	1.91
Cc1ccc(CN)cc1	7.92
CCCCCCNC(=O)c1ccc(OC(C)=O)cc1	13.8
O=C(CN1CCN(C(=O)CNC2CCCCC2)CC1)NC1CCCCC1	9.54

SMILES	LC retention time [min]
O=C1NC(=O)C(c2ccccc2)(c2ccccc2)N1	11
CCOc1ccc(C(c2c[nH]c3ccccc23)c2c[nH]c3ccccc23)cc1	17.2
O=C(CCCN1C(=O)c2ccccc2C1=O)OCc1ccccc1	15.1
O=C1CCCN1CP(=O)(O)CN1CCCC1=O	1.46
CCCCCCn1c2ccccc2c2cc(C(C)=O)ccc21	20
NC(=S)NC(N)=S	6.5
CCOC(=O)CNc1ccccc1	12.4
CCCCCC(N)=O	8.31
CSc1nnc(C)c(C)n1	8.89
CCCCCCCCCCNC(=S)Nc1ccccc1	19.6
Cc1ccc(C=C2CN(C)CC(=Cc3ccc(C)cc3C)C2=O)c(C)c1	13.1
CNC(=O)c1cc2c(n(-c3ccccc3)c1=O)CCCC2=O	9.8
c1cncc(CNc2c3c(nc4ccccc24)CCC3)c1	8.56
Cc1[nH]c2ccccc2c1CCNC(=O)C1CCCCC1	13.6
CC(N)(CO)CO	3.29
Cc1c(C(=O)N(C)c2ccccc2)oc2ccccc12	15.3
CCCCCCCCCCCCCCCCCCNC	19
c1ccc(Oc2nnc(-c3ccccc3)c3ccccc23)cc1	15.8
CC(=O)N1CCc2[nH]c3ccccc3c2C1	10.2
CCOC(CN1CCCCC1)OCC	8.11
O=C(O)c1ccc2[nH]c3c(c2c1)CCCC3	11.6
C#CC(C)(CC)NC(=O)Cc1ccccc1 (stereo not given)	12.2
COc1ccc(-c2cc(=O)c3c(ccc4ccccc43)o2)cc1	17
Cc1ccc(C)n1Cc1ccccc1	16.8
O=C(Nc1ccc2[nH]c(=O)[nH]c2c1)c1ccco1	7.75
c1ccc(-c2cc(-c3ccccc3)n(-c3ccccc3)n2)cc1	19

SMILES	LC retention time [min]
CN(C)CCCN1CCC(O)C2CCCCC21 (stereo not given)	7.19
CN1C(=O)NC(c2ccc(O)cc2)C2=C1CN(Cc1ccccc1)C2=O (stereo not given)	9.6
CC(=O)Nc1ccc(C2=NNC(c3ccccc3)C2)cc1 (stereo not given)	10.3
CC(=O)Oc1c[nH]c2ccccc12	11.6
CC(=NNC(=O)CNC(=O)C(c1ccccc1)c1ccccc1)c1ccc(N(C)C)cc1	13.9
COc1cccc2c1NC(C)(C)CC2C (stereo not given)	12.3
CC(=CCc1ccccc1)N=Nc1nc(=S)[nH][nH]1	10.6
Cc1[nH]c2ccccc2c1CCNC(=O)CN1C(=O)c2ccccc2C1=O	12.4
c1csc(-c2cnc3ccccc3n2)c1	14.3
Nc1cccc(N2CCOCC2)c1	7.53
CCCNC(=O)Nc1ccc2c(c1)oc1ccccc12	14
Cc1ccc2c(CN3CCNCC3)cc(=O)oc2c1	8.81
CNc1ccncc1	6.54
CC(=O)c1cccc(N2C(=O)C3CCCCC3C2=O)c1 (stereo not given)	12
Nc1ccc2c(c1)COC2=O	7.27
CC(=O)c1c(C(C)=O)c(C)n(C)c1C	8.65
CCOC(=O)c1c(C)n(C2CCCCC2)c2ccc(OC(C)=O)cc12	17.8
CCOC(=O)c1ccc(NC(=O)CC(C)(C)C)cc1	14.8
O=c1cccc[nH]1	4.79
CC(C)c1ccc(-c2cc(-c3ccccc3)c3c(ccc4ncccc43)n2)cc1	20.4
Cc1sc(C)c(CNCC(C)C)c1CNCC(C)C	8.93
CCC(=O)Nc1ccc(NCC(=O)Nc2ccc(C)cc2C)cc1	11.1
Nc1nc2c([nH]c(=O)n2C2CC(O)C(CO)O2)c(=O)[nH]1 (stereo not given)	6.05
Cc1cc(=O)[nH]c2c(C)c(N)ccc12	8.42
OCCCCNCc1ccccc1	7.61
Cc1ccc(C)n1-c1ccccc1C(=O)O	12.1
